Data taken from patent US11884707B2, “Compositions for detection, inhibition and imaging of indoleamine 2, 3-dioxygenase 1 (IDO1) and methods of making and using same” (Regeneron Pharmaceuticals, Inc., priority 2016, dated 2024).
Where a SMILES comes first, the peptide text is derived from it. Bridges are numbered along the chain shown (N, C = ends). Triazole bridges read from a SMILES are 1,4-linked. [ ]: non-standard residue; d: D form. The star is where a group is joined. Biotinyl(3aR,4R,6aS) = O=C1N[C@@H]2[C@@H](CS[C@@H]2CCCCC(=O)*)N1; Biotin = O=C1N[C@H]2[C@H](CS[C@H]2CCCCC(=O)*)N1; Trp(1-Me) = Cn1cc(C[C@H](N)C(=O)O)c2ccccc21; Lys(N3) = [N-]=[N+]=NCCCC[C@H](N)C(=O)O; Phe(4-F) = N[C@@H](Cc1ccc(F)cc1)C(=O)O; AEEEA = NCCOCCOCCOCC(=O)O; Pra = C#CC[C@H](N)C(=O)O

Target: T1, His-tagged IDO1 human recombinant protein (Homo sapiens, UniProt P14902)
T1 construct: purchased BPS Biosciences 71182
T1 sequence (P14902 whole entry): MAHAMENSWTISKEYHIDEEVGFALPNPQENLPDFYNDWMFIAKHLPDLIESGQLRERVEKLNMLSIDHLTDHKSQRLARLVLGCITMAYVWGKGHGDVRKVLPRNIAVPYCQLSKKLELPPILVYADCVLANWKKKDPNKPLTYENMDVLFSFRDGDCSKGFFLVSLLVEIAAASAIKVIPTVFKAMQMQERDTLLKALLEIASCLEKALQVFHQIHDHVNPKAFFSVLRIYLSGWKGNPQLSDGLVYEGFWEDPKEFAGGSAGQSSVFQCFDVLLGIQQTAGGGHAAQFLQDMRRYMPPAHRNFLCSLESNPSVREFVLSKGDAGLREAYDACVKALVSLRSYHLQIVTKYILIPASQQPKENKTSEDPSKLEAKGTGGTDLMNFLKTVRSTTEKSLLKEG
Test: IDO1 ELISA (affinity assay), sandwich ELISA with immobilized biotinylated macrocycle
Assay type: binding
Conditions: for EC50: biotin-PEG3-modified macrocycle immobilized on NeutrAvidin plate (2 μM coating), His-tagged human IDO1 200 to 0 nM
Method: A black 96-well NeutrAvidin Coated High Binding Capacity plate (15510, Pierce) was coated with 2 μM biotinylated macrocyclic peptide ligand in TBS (25 mM Tris-HCl, 150 mM NaCl, pH 7.6) for 2 h at room temperature. The plate was aspirated and then washed with Wash Buffer (0.05% (v/v) Tween-20 in PBS, 6×). His-tagged IDO1 human recombinant protein (71182, BPS Biosciences) was serially diluted in Wash Buffer (from 200 to 0 nM) and incubated in the designated microwells for 1 h at room temperature. Microwells were aspirated and subsequently washed with Wash Buffer (11×). To detect the bound IDO1 protein, Alkaline Phosphatase (AP)-conjugated Anti-6×His Tag® antibody [HIS-1] (ab49746, Abcam) was prepared at 1:10,000 dilution and added to the microwells for 1 h at room temperature. The plate was aspirated and washed with Wash Buffer (5×). AttoPhos® AP Fluorescent Substrate System (S1000, Promega) was employed to develop the microwells. Using an excitation wavelength of 430 nm, fluorescent emission at 535 nm was recorded by Beckman Coulter DTX880 photometer. Titration curves were fit using a four-parameter regression curve fitting program to determine EC50 values.
The binding affinities of biotin-PEG3-modified macrocyclic peptide ligands were tested in an ELISA format. For these assays, a dilution series of His-tagged IDO1 human recombinant protein was captured using the macrocyclic peptide ligands immobilized on a NeutrAvidin-coated plate. […] The sequences of the peptide ligands are listed in Table 1, where D-amino acids are denoted in lowercase, Me-Trp=1-methyl-L-tryptophan, and F-Phe=4-fluoro-L-phenylalanine.
The D-alanine substituted, biotin-PEG3-modified macrocycles were tested in the IDO1 ELISA (Affinity assay). For these assays, a dilution series of His-tagged IDO1 human recombinant protein was captured using macrocycles immobilized on a NeutrAvidin-coated plate.

[1] = alanine scan and 3-mer/4-mer variants, biotin-PEG3-modified, FIGS. 15-18

SMILES	EC50 [nM]	Binding affinity to human IDO1 relative to parent macrocycle or sibling variants (in words) [1]	also measured
Cn1cc(C[C@@H]2NC(=O)[C@@H](Cc3ccccc3)NC(=O)[C@@H](CCCNC(=N)N)NC(=O)[C@@H](Cc3ccccc3)NC(=O)[C@@H](NC(=O)COCCOCCOCCNC(=O)CCCC[C@@H]3SC[C@@H]4NC(=O)N[C@@H]43)Cc3cn(nn3)CCCC[C@@H](C(N)=O)NC(=O)[C@@H](CO)NC2=O)c2ccccc21 [biotin-PEG3-Cy(frf(Me-Trp)s)] ({Biotin-AEEEA}-[Pra][dF][dR][dF][Trp(1-Me)][dS][Lys(N3)]-NH2; triazole 1-7)	20		
Cn1cc(C[C@@H]2NC(=O)[C@@H](CCCNC(=N)N)NC(=O)[C@@H](Cc3ccccc3)NC(=O)[C@@H](CO)NC(=O)[C@@H](CC(N)=O)NC(=O)[C@@H](NC(=O)COCCOCCOCCNC(=O)CCCC[C@@H]3SC[C@@H]4NC(=O)N[C@@H]43)Cc3cn(nn3)CCCC[C@@H](C(N)=O)NC2=O)c2ccccc21 [biotin-PEG3-Cy(nsfr(Me-Trp))] ({Biotin-AEEEA}-[Pra][dN][dS][dF][dR][Trp(1-Me)][Lys(N3)]-NH2; triazole 1-7)	124		
CC(C)C[C@H]1NC(=O)[C@@H](Cc2ccc(O)cc2)NC(=O)[C@@H](Cc2ccccc2)NC(=O)[C@@H](Cc2ccccc2)NC(=O)[C@@H](CCCNC(=N)N)NC(=O)[C@@H](NC(=O)COCCOCCOCCNC(=O)CCCC[C@@H]2SC[C@@H]3NC(=O)N[C@@H]32)Cc2cn(nn2)CCCC[C@@H](C(N)=O)NC1=O [biotin-PEG3-Cy(rffyl)] ({Biotin-AEEEA}-[Pra][dR][dF][dF][dY][dL][Lys(N3)]-NH2; triazole 1-7)	125		
C[C@H]1NC(=O)[C@@H](CCCNC(=N)N)NC(=O)[C@@H](Cc2ccc(O)cc2)NC(=O)[C@@H](Cc2c[nH]c3ccccc23)NC(=O)[C@@H](NC(=O)COCCOCCOCCNC(=O)CCCC[C@@H]2SC[C@@H]3NC(=O)N[C@@H]32)Cc2cn(nn2)CCCC[C@@H](C(N)=O)NC(=O)[C@@H](Cc2ccc(O)cc2)NC1=O [biotin-PEG3-Cy(wyray)] ({Biotin-AEEEA}-[Pra][dW][dY][dR][dA][dY][Lys(N3)]-NH2; triazole 1-7)	25		
C[C@H]1NC(=O)[C@@H](Cc2ccccc2)NC(=O)[C@@H](CCCNC(=N)N)NC(=O)[C@@H](Cc2ccccc2)NC(=O)[C@@H](NC(=O)COCCOCCOCCNC(=O)CCCC[C@@H]2SC[C@@H]3NC(=O)N[C@@H]32)Cc2cn(nn2)CCCC[C@@H](C(N)=O)NC(=O)[C@@H](CO)NC1=O [frfas, Biotin-PEG3-Cy(frfas)] ({Biotin-AEEEA}-[Pra][dF][dR][dF][dA][dS][Lys(N3)]-NH2; triazole 1-7)		weakest binding to IDO1	
CC(C)C[C@H]1NC(=O)[C@@H](NC(=O)COCCOCCOCCNC(=O)CCCC[C@H]2SC[C@H]3NC(=O)N[C@H]32)Cc2cn(nn2)CCCC[C@@H](C(N)=O)NC(=O)[C@H](Cc2ccc(F)cc2)NC(=O)[C@H](Cc2cn(C)c3ccccc23)NC(=O)[C@@H](Cc2ccccc2)NC1=O [lf(Me-Trp)(F-Phe), Biotin-PEG3-Cy(lf(Me-Trp)(F-Phe))] ({Biotinyl(3aR,4R,6aS)-AEEEA}-[Pra][dL][dF][Trp(1-Me)][Phe(4-F)][Lys(N3)]-NH2; triazole 1-6)		slight decrease in binding affinity	
NC(=O)[C@@H]1CCCCn2cc(nn2)C[C@H](NC(=O)COCCOCCOCCNC(=O)CCCC[C@@H]2SC[C@@H]3NC(=O)N[C@@H]32)C(=O)N[C@H](CO)C(=O)N[C@H](Cc2c[nH]c3ccccc23)C(=O)N[C@H](Cc2c[nH]c3ccccc23)C(=O)N[C@@H](Cc2ccc(F)cc2)C(=O)N1 [sww(F-Phe), Biotin-PEG3-Cy(sww(F-Phe))] ({Biotin-AEEEA}-[Pra][dS][dW][dW][Phe(4-F)][Lys(N3)]-NH2; triazole 1-6)			Maximum ELISA signal for human IDO1 binding (in words) [1]: superior to the other 4-mers generated
N=C(N)NCCC[C@H]1NC(=O)[C@@H](Cc2ccc(O)cc2)NC(=O)[C@@H](Cc2c[nH]c3ccccc23)NC(=O)[C@@H](NC(=O)COCCOCCOCCNC(=O)CCCC[C@H]2SC[C@H]3NC(=O)N[C@H]32)Cc2cn(nn2)CCCC[C@@H](C(N)=O)NC(=O)[C@@H](Cc2ccc(O)cc2)NC1=O [wyry, Biotin-PEG3-Cy(wyry)] ({Biotinyl(3aR,4R,6aS)-AEEEA}-[Pra][dW][dY][dR][dY][Lys(N3)]-NH2; triazole 1-6)		best affinity among the 4-mer macrocycles	
